Broadly, the IC50 is the point on the concentration scale where inhibition reaches its midpoint.

The target in assay [1] is pseudo-kinase domain (JH2) of human V617F mutant JAK2 (Homo sapiens (Human), UniProt O60674, F794H/V617F/W659A/W777A). Description: JAK2 LanthaScreen JH2-V617F Binding Assay. As to conditions: 50 nM tracer, 1 hour at 25° C. On the procedure:
Example C. JAK2 LanthaScreen JH2-V617F Binding Assay
(§1) JAK2 JH2-V617F binding assay utilizes pseudo-kinase domain (JH2, amino-acids 536-812 with 3 surface mutations W659A, W777A, F794H) of human V617F mutant JAK2 expressed as C-terminal His-Avi-tagged, biotinylated protein in a baculovirus expression system (BPS Bioscience, Catalog #79498). The assay was conducted in black 384-well polystyrene plates in a final reaction volume of 20 μL. JAK2 JH2-V617F (0.26 nM) was incubated with compounds (100 nL serially diluted in DMSO) in the presence of 50 nM Fluorescent JAK2-JH2 Tracer (MedChem Express Catalog #HY-102055) and 0.25 nM Streptavidin-Tb cryptate (Cisbio Part #610SATLB) in assay buffer (50 mM Tris, pH=7.5, 10 mM MgCl2, 0.01% Brij-35, 0.1% BSA, 1 mM EGTA, 5% Glycerol and 5 mM DTT). Non-specific binding was accessed in the presence of 2 mM ATP. After incubation for 1 hour at 25° C., LanthaScreen signals were read on a PHERAstar FS plate reader (BMG LABTECH). Data was analyzed with IDBS XLfit and GraphPad Prism 5.0 software using a four parameter dose response curve to determine IC50 for each compound.
A general note: TR-FRET usually uses a lanthanide donor and a delayed reading to cut background.

The target in assay [2] is T1, catalytic domain (JH1) of human JAK2 (Homo sapiens (Human), UniProt O60674). Description: JAK2 LanthaScreen JH1 Binding Assay. As to conditions: JAK2 JH1, 50 nM tracer, 2 hours at 25° C. The protocol:
Example A. JAK2 LanthaScreen JH1 Binding Assay
JAK2 JH1 binding assay utilizes catalytic domain (JH1, amino acids 826-1132) of human JAK2 expressed as N-terminal FLAG-tagged, biotinylated protein in a baculovirus expression system (Carna Biosciences, Product #08-445-20N). The assay was conducted in black 384-well polystyrene plates in a final reaction volume of 20 μL. JAK2 JH1 (1.5 nM) was incubated with compounds (100 nL serially diluted in DMSO) in the presence of 50 nM Fluorescent JAK2-JH1 Tracer and 0.5 nM Streptavidin-Tb cryptate (Cisbio Part #610SATLB) in assay buffer (50 mM Tris, pH=7.5, 10 mM MgCl2, 0.01% Brij-35, 0.1% BSA, 1 mM EGTA, 5% Glycerol and 5 mM DTT). Non-specific binding was accessed in the presence of 2 mM ATP. After incubation for 2 hours at 25° C., LanthaScreen signals were read on a PHERAstar FS plate reader (BMG LABTECH). Data was analyzed with IDBS XLfit and GraphPad Prism 5.0 software using a four parameter dose response curve to determine IC50 for each compound.
Target sequence in this assay (O60674 826-1132): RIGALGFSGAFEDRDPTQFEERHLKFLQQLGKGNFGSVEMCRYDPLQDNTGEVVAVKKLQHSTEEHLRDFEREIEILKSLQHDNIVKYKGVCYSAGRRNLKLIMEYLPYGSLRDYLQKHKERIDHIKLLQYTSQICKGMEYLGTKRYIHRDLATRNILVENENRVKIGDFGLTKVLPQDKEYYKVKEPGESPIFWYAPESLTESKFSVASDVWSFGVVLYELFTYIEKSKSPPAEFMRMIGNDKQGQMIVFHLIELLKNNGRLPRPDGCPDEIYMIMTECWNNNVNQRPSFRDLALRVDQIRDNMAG

Assay [3] deals with T1, catalytic domain (JH1) of human JAK2. Description: JAK2 HTRF Enzyme Activity Assay. It counts as biochemical. As to conditions: ATP 30 μM; read-out: ENZ 30UMATP IC50. On the procedure: Example D. JAK2 HTRF Enzyme Activity Assay
JAK2 enzyme activity assays utilize catalytic domain (JH1, amino acids 808-1132) of human JAK2 expressed as N-terminal His-tagged protein in a baculovirus expression system (BPS Bioscience, Catalog #40450). The assays was conducted in black 384-well polystyrene plates in a final reaction volume of 20 μL. JAK2 (0.015 nM) was incubated with compounds (100 nL serially diluted in DMSO) in the presence of ATP (30 μM or 1 mM) and 500 nM Biotin-labeled EQEDEPEGDYFEWLE (SEQ ID NO.: 1) peptide (BioSource International, custom synthesis) in assay buffer (50 mM Tris, pH=7.5, 10 mM MgCl2, 0.01% Brij-35, 0.1% BSA, 1 mM EGTA, 5% Glycerol and 5 mM DTT) for 60 minutes at 25° C. The reactions were stopped by the addition of 10 μL of detection buffer (50 mM Tris, pH 7.8, 0.5 mg/mL BSA, 150 mM NaCl), supplemented with EDTA, LANCE Eu-W1024 anti-phosphotyrosine (PY20), (PerkinElmer, Catalog #AD0067) and Streptavidin SureLight APC (PerkinElmer Catalog #CR130-100), for a final concentration of 15 mM, 1.5 nM and 75 nM, respectively. HTRF signals were read after 30 minutes incubation at room temperature on a PHERAstar FS plate reader (BMG LABTECH). Data was analyzed with IDBS XLfit and GraphPad Prism 5.0 software using a four parameter dose response curve to determine IC50 for each compound.
Target sequence in this assay (O60674 808-1132): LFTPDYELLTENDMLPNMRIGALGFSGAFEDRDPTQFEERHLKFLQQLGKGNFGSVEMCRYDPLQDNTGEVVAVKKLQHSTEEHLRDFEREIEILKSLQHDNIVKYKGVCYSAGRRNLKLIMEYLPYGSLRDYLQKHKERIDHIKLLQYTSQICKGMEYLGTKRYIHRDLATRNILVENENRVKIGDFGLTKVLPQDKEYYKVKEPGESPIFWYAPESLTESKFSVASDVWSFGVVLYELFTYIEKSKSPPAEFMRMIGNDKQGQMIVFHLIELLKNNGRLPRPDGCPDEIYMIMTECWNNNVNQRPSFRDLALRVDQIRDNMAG

For assay [4], the target named is pseudo-kinase domain (JH2) of human Wild Type JAK2 (Homo sapiens (Human), UniProt O60674, F794H/W659A/W777A). Description: JAK2 LanthaScreen JH2-WT Binding Assay. Particulars: 50 nM tracer, 1 hour at 25° C. On the procedure:
Example B. JAK2 LanthaScreen JH2-WT Binding Assay
as §1, with “JH2-WT” for “JH2-V617F”, “Wild Type” for “V617F mutant”, “#79463).” for “#79498).”, “JH2-WT (0.145” for “JH2-V617F (0.26”

SMILES strings stand for the structures. Where a name gives a salt, the structure may show the parent alone.

Sequence of pseudo-kinase domain (JH2) of human V617F mutant JAK2 (O60674 536-812 V617F/W659A/W777A/F794H): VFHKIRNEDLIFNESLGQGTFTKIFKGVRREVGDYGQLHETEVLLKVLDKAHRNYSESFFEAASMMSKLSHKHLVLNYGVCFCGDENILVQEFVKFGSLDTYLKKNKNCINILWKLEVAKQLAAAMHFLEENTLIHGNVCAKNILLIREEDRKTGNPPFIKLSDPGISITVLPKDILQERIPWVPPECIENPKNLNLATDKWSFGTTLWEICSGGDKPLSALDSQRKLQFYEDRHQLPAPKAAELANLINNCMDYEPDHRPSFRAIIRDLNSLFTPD
Sequence of pseudo-kinase domain (JH2) of human Wild Type JAK2 (O60674 536-812 W659A/W777A/F794H): as the sequence (O60674 536-812 V617F/W659A/W777A/F794H) above, with F82V counted along it

With `CCNC(=O)NC1CCC2(CC1)C(=O)N(C)c1cnc(Nc3ccc4cccc(C(F)(F)F)c4n3)cc12` (single isomer, unassigned) [Example 1, 1-Ethyl-3-((1s,4s)-1′-(methyl-d3)-2′-oxo-5′-((8-(trifluoromethyl)quinolin-2-yl)amino)-1′,2′-dihydrospiro[cyclohexane-1,3′-pyrrolo[2,3-c]pyridin]-4-yl)urea, trifluoroacetate salt], the values for the IC50 in assay [1], in assay [2] and in assay [3] were not above 100 nM, more than 2500 nM and more than 2500 nM, respectively. `[2H]C([2H])([2H])N1C(=O)C2(CCC(NC(=O)NCC)CC2)c2cc(Nc3ccc4cccc(C(F)(F)F)c4n3)ncc21` (single isomer, unassigned) [Example 1, 1-Ethyl-3-((1s,4s)-1′-(methyl-d3)-2′-oxo-5′-((8-(trifluoromethyl)quinolin-2-yl)amino)-1′,2′-dihydrospiro[cyclohexane-1,3′-pyrrolo[2,3-c]pyridin]-4-yl)urea, trifluoroacetate salt] had a 50% inhibitory concentration (IC50) in assay [4] not above 100 nM. The compound `CCNC(=O)NC1CCC2(CC1)C(=O)N(C)c1cnc(Nc3ccc4cccc(C(F)(F)F)c4n3)cc12` (single isomer, unassigned) [Example 2, 1-Ethyl-3-((1r,4r)-1′-(methyl-d3)-2′-oxo-5′-((8-(trifluoromethyl)quinolin-2-yl)amino)-1′,2′-dihydrospiro[cyclohexane-1,3′-pyrrolo[2,3-c]pyridin]-4-yl)urea, trifluoroacetate salt] showed an IC50 in assay [4] not above 100 nM. Turning to `[2H]C([2H])([2H])N1c2cnc(Nc3ccc4cccc(C(F)(F)F)c4n3)cc2[C@]2(C[C@@H](CNC(=O)OC)C2)C1=O` [Example 3, Methyl (((1r,3r)-1′-(methyl-d3)-2′-oxo-5′-((8-(trifluoromethyl)quinolin-2-yl)amino)-1′,2′-dihydrospiro[cyclobutane-1,3′-pyrrolo[2,3-c]pyridin]-3-yl)methyl)carbamate, trifluoroacetate salt], the concentration for half-maximal inhibition (IC50) in assay [1] is not above 100 nM; in assay [3], more than 2500 nM.

`[2H]C([2H])([2H])N1c2cnc(Nc3ccc4cccc(C(F)(F)F)c4n3)cc2[C@]2(C[C@@H](CNC(=O)C3CC3)C2)C1=O` [Example 4, N-(((1r,3r)-1′-(Methyl-d3)-2′-oxo-5′-((8-(trifluoromethyl)quinolin-2-yl)amino)-1′,2′-dihydrospiro[cyclobutane-1,3′-pyrrolo[2,3-c]pyridin]-3-yl)methyl)cyclopropanecarboxamide, trifluoroacetate salt]: the IC50 in assay [1] is not above 100 nM; in assay [3], more than 2500 nM. On the same counts, the results for `[2H]C([2H])([2H])N1c2cnc(Nc3ccc4c(n3)c(-c3cnn(C(F)(F)F)c3)nn4C)cc2[C@]2(C[C@@H](CO)C2)C1=O` [Example 5, (1r,3r)-3-(Hydroxymethyl)-1′-(methyl-d3)-5′-((1-methyl-3-(1-(trifluoromethyl)-1H-pyrazol-4-yl)-1H-pyrazolo[4,3-b]pyridin-5-yl)amino)spiro[cyclobutane-1,3′-pyrrolo[2,3-c]pyridin]-2′(1′H)-one, trifluoroacetate salt] are not above 100 nM and more than 2500 nM. For the compound `[2H]C([2H])([2H])N1c2cnc(Nc3ccc4c(n3)c(-c3cnn(C(F)(F)F)c3)nn4C)cc2[C@]2(C[C@@H](CNC(=O)OC)C2)C1=O` [Example 6, Methyl (((1r,3r)-1′-(methyl-d3)-5′-((1-methyl-3-(1-(trifluoromethyl)-1H-pyrazol-4-yl)-1H-pyrazolo[4,3-b]pyridin-5-yl)amino)-2′-oxo-1′,2′-dihydrospiro[cyclobutane-1,3′-pyrrolo[2,3-c]pyridin]-3-yl)methyl)carbamate, trifluoroacetate salt], the IC50 is not above 100 nM in assay [1] and more than 2500 nM in assay [3].

On to `[2H]C([2H])([2H])N1c2cnc(Nc3ccc4c(n3)c(-c3cnn(C(F)(F)F)c3)nn4C)cc2[C@]2(C[C@@H](CNC(=O)C3CC3)C2)C1=O` [Example 7, N-(((1r,3r)-1′-(Methyl-d3)-5′-((1-methyl-3-(1-(trifluoromethyl)-1H-pyrazol-4-yl)-1H-pyrazolo[4,3-b]pyridin-5-yl)amino)-2′-oxo-1′,2′-dihydrospiro[cyclobutane-1,3′-pyrrolo[2,3-c]pyridin]-3-yl)methyl)cyclopropanecarboxamide, trifluoroacetate salt], for which the 50% inhibitory concentration (IC50) in assay [1] is not above 100 nM; in assay [3] it was more than 2500 nM.

The values are drawn from patent US20250101020A1, “SPIROCYCLIC LACTAM INHIBITORS” (Incyte Corporation, priority 2023, published 2025).
